In US20230365592A1 (Agios Pharmaceuticals, Inc., priority 2022, published 2023):

target: T1, human PAH with the R408W mutation (Homo sapiens, UniProt P00439, R408W); test: Cell Based Phenylalanine Flux Assay; details: A375 cells expressing human PAH R408W; 24 hrs compound incubation; 13C-Tyrosine by LC-MS; average where tested multiple times; read-out: AC50;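 further: after compound treatment, cells received sepiapterin plus isotope-labelled Phenylalanine for 4 hours, then labelled Tyrosine in the medium was quantified, 10-point 2-fold dilution series run in duplicate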
T1 construct: expressed in transfected cells
T1 sequence (P00439 1-452 R408W): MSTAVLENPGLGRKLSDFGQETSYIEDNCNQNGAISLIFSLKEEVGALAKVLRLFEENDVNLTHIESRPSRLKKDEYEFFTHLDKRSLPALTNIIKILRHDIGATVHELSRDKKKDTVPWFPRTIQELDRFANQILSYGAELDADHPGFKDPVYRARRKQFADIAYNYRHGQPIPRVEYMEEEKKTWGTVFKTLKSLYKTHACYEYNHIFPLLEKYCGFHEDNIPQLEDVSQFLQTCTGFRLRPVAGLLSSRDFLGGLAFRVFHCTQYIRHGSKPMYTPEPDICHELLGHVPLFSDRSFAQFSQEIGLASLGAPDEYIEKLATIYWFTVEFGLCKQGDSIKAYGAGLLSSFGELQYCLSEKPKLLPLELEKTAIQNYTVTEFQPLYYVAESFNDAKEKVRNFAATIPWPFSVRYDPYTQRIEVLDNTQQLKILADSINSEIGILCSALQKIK

Cc1cccn2nc([C@H]3c4nc[nH]c4CCN3c3nnc(-c4ncccc4F)o3)cc12 [Example 2340, (R)-2-(3-fluoropyridin-2-yl)-5-(4-(4-methylpyrazolo[1,5-a]pyridin-2-yl)-1,4,6,7-tetrahydro-5H-imidazo[4,5-c]pyridin-5-yl)-1,3,4-oxadiazole] was tested. Which AC50 did it give?
The AC50 was > 5 µM.

Cc1cccn2nc([C@@H]3c4nc[nH]c4CCN3c3nnc(-c4ncccc4F)o3)cc12 [Example 2341, (S)-2-(3-fluoropyridin-2-yl)-5-(4-(4-methylpyrazolo[1,5-a]pyridin-2-yl)-1,4,6,7-tetrahydro-5H-imidazo[4,5-c]pyridin-5-yl)-1,3,4-oxadiazole] was tested. Which AC50 did it give?
The AC50 was 0.5 to 1 µM.

With Cc1cccc(-c2nnc(N3CCc4[nH]cnc4[C@H]3c3cc4c(C)cccn4n3)o2)n1 [Example 2345, (S)-2-(4-(4-methylpyrazolo[1,5-a]pyridin-2-yl)-1,4,6,7-tetrahydro-5H-imidazo[4,5-c]pyridin-5-yl)-5-(6-methylpyridin-2-yl)-1,3,4-oxadiazole] as the molecule, how does the AC50 read?
Its AC50 is 0.5 to 1 µM.

Cc1cccc(-c2nnc(N3CCc4[nH]cnc4[C@H]3c3cc4c(C(F)F)cccn4n3)o2)n1 [Example 2347, (S)-2-(4-(4-(difluoromethyl)pyrazolo[1,5-a]pyridin-2-yl)-1,4,6,7-tetrahydro-5H-imidazo[4,5-c]pyridin-5-yl)-5-(6-methylpyridin-2-yl)-1,3,4-oxadiazole] was tested. Which AC50 did it give?
Its AC50 is 0.5 to 1 µM.

Which AC50 does the source give for FC(F)(F)Oc1cccn2nc([C@@H]3c4nc[nH]c4CCN3c3ccc(C(F)(F)F)cn3)cc12 [Example 2348, (S)-4-(4-(trifluoromethoxy)pyrazolo[1,5-a]pyridin-2-yl)-5-(5-(trifluoromethyl)pyridin-2-yl)-4,5,6,7-tetrahydro-1H-imidazo[4,5-c]pyridine] here?
The AC50 was 0.5 to 1 µM.

Fc1ncccc1-c1nnc(N2CCc3[nH]cnc3[C@H]2c2cc3c(Cl)cccn3n2)o1 [Example 2350, (S)-2-(4-(4-chloropyrazolo[1,5-a]pyridin-2-yl)-1,4,6,7-tetrahydro-5H-imidazo[4,5-c]pyridin-5-yl)-5-(2-fluoropyridin-3-yl)-1,3,4-oxadiazole] was tested. Which AC50 did it give?
Its AC50 is 0.5 to 1 µM.

For CC(C)c1cccn2nc([C@H]3c4nc[nH]c4CCN3c3nnc(-c4ncccc4F)o3)cc12 [Example 2354, (R)-2-(3-fluoropyridin-2-yl)-5-(4-(4-isopropylpyrazolo[1,5-a]pyridin-2-yl)-1,4,6,7-tetrahydro-5H-imidazo[4,5-c]pyridin-5-yl)-1,3,4-oxadiazole], which AC50 is on record?
Its AC50 is > 5 µM.

Which AC50 does the source give for CC(C)c1cccn2nc([C@@H]3c4nc[nH]c4CCN3c3nnc(-c4ncccc4F)o3)cc12 [Example 2355, (S)-2-(3-fluoropyridin-2-yl)-5-(4-(4-isopropylpyrazolo[1,5-a]pyridin-2-yl)-1,4,6,7-tetrahydro-5H-imidazo[4,5-c]pyridin-5-yl)-1,3,4-oxadiazole] here?
Its AC50 is 0.5 to 1 µM.

How did the AC50 turn out when Cc1cccc(-c2nnc(N3CCc4[nH]cnc4[C@H]3c3cc4c(C(F)(F)F)cccn4n3)o2)n1 [Example 2357, (S)-2-(6-methylpyridin-2-yl)-5-(4-(4-(trifluoromethyl)pyrazolo[1,5-a]pyridin-2-yl)-1,4,6,7-tetrahydro-5H-imidazo[4,5-c]pyridin-5-yl)-1,3,4-oxadiazole] was run?
Its AC50 is 0.5 to 1 µM.

Which AC50 does the source give for Cc1cccc(-c2nnc(N3CCc4[nH]cnc4[C@@H]3c3cc4c(C5CC5)cccn4n3)o2)n1 [Example 2358, (R)-2-(4-(4-cyclopropylpyrazolo[1,5-a]pyridin-2-yl)-1,4,6,7-tetrahydro-5H-imidazo[4,5-c]pyridin-5-yl)-5-(6-methylpyridin-2-yl)-1,3,4-oxadiazole] here?
Its AC50 is > 5 µM.

With Cc1cccc(-c2nnc(N3CCc4[nH]cnc4[C@H]3c3cc4c(C5CC5)cccn4n3)o2)n1 [Example 2359, (S)-2-(4-(4-cyclopropylpyrazolo[1,5-a]pyridin-2-yl)-1,4,6,7-tetrahydro-5H-imidazo[4,5-c]pyridin-5-yl)-5-(6-methylpyridin-2-yl)-1,3,4-oxadiazole] as the molecule, how does the AC50 read?
The AC50 was 0.5 to 1 µM.

How did the AC50 turn out when Cc1cccn2nc([C@H]3c4nc[nH]c4CCN3c3nnc(-c4cccc(F)n4)o3)cc12 [Example 2360, (R)-2-(6-fluoropyridin-2-yl)-5-(4-(4-methylpyrazolo[1,5-a]pyridin-2-yl)-1,4,6,7-tetrahydro-5H-imidazo[4,5-c]pyridin-5-yl)-1,3,4-oxadiazole] was run?
Its AC50 is > 5 µM.

For Fc1cccc(-c2nnc(N3CCc4[nH]cnc4[C@H]3c3cc4c(C(F)(F)F)cccn4n3)o2)n1 [Example 2363, (S)-2-(6-fluoropyridin-2-yl)-5-(4-(4-(trifluoromethyl)pyrazolo[1,5-a]pyridin-2-yl)-1,4,6,7-tetrahydro-5H-imidazo[4,5-c]pyridin-5-yl)-1,3,4-oxadiazole], which AC50 is on record?
Its AC50 is 0.5 to 1 µM.

For O=C(c1nnc(-c2ccc(F)cn2)o1)N1CCc2[nH]cnc2[C@@H]1c1cc2ccccn2n1 [Example 2364, (R)-(5-(5-fluoropyridin-2-yl)-1,3,4-oxadiazol-2-yl)(4-(pyrazolo[1,5-a]pyridin-2-yl)-6,7-dihydro-1H-imidazo[4,5-c]pyridin-5(4H)-yl)methanone], which AC50 is on record?
Its AC50 is > 5 µM.

With O=C(c1cnn(CC(F)(F)F)c1C(F)F)N1CCc2[nH]cnc2[C@H]1c1cc2ccccn2n1 [Example 2368, (S)-(5-(difluoromethyl)-1-(2,2,2-trifluoroethyl)-1H-pyrazol-4-yl)(4-(pyrazolo[1,5-a]pyridin-2-yl)-6,7-dihydro-1H-imidazo[4,5-c]pyridin-5(4H)-yl)methanone] as the molecule, how does the AC50 read?
Its AC50 is 1 to 5 µM.

With O=C(c1cnn(CC(F)(F)F)c1C(F)F)N1CCc2[nH]cnc2[C@@H]1c1cc2ccccn2n1 [Example 2369, (R)-(5-(difluoromethyl)-1-(2,2,2-trifluoroethyl)-1H-pyrazol-4-yl)(4-(pyrazolo[1,5-a]pyridin-2-yl)-6,7-dihydro-1H-imidazo[4,5-c]pyridin-5(4H)-yl)methanone] as the molecule, how does the AC50 read?
The AC50 was > 5 µM.

How did the AC50 turn out when Nc1cc(C(=O)N2CCc3[nH]cnc3[C@H]2c2cc3ccccn3n2)n(C(F)F)n1 [Example 2370, (S)-(3-amino-1-(difluoromethyl)-1H-pyrazol-5-yl)(4-(pyrazolo[1,5-a]pyridin-2-yl)-6,7-dihydro-1H-imidazo[4,5-c]pyridin-5(4H)-yl)methanone] was run?
The AC50 was 1 to 5 µM.

Cn1nc(C(F)(F)F)nc1C(=O)N1CCc2[nH]cnc2[C@H]1c1cc2ccccn2n1 [Example 2372, (S)-(1-methyl-3-(trifluoromethyl)-1H-1,2,4-triazol-5-yl)(4-(pyrazolo[1,5-a]pyridin-2-yl)-6,7-dihydro-1H-imidazo[4,5-c]pyridin-5(4H)-yl)methanone] was tested. Which AC50 did it give?
The AC50 was 1 to 5 µM.

CC(C)(O)c1nnc(C(=O)N2CCc3[nH]cnc3[C@H]2c2cc3c(Cl)cccn3n2)o1 [Example 2378, (S)-(4-(4-chloropyrazolo[1,5-a]pyridin-2-yl)-6,7-dihydro-1H-imidazo[4,5-c]pyridin-5(4H)-yl)(5-(2-hydroxypropan-2-yl)-1,3,4-oxadiazol-2-yl)methanone] was tested. Which AC50 did it give?
Its AC50 is 1 to 5 µM.

For Cc1ccc2cc([C@@H]3c4nc[nH]c4CCN3C(=O)c3nnc(-c4cnn(C)c4)o3)nn2c1 [Example 2380, (S)-(5-(1-methyl-1H-pyrazol-4-yl)-1,3,4-oxadiazol-2-yl)(4-(6-methylpyrazolo[1,5-a]pyridin-2-yl)-6,7-dihydro-1H-imidazo[4,5-c]pyridin-5(4H)-yl)methanone], which AC50 is on record?
The AC50 was 1 to 5 µM.
